From patent US20260285850A1, “SUBSTITUTED OXAZOLIDINONES AND IMIDAZOLINONES AS HERBICIDES” (FMC CORPORATION, priority 2023, published 2026)

Assays:
Format in all cases: in vivo
[1] = tested on: blackgrass (Alopecurus myosuroides); test: Test A preemergence soil spray, visual injury rating 0-100; details: 10 days, 0 = no effect, 100 = complete control
How it was run: (§1)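 Greenhouse test: loam/sand pots received a surfactant-containing formulation, as a preemergence directed soil spray or a postemergence spray on young plants. Injury was judged visually at day 10 relative to untreated controls.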

[2] = tested on: wheat (Triticum aestivum); test: as above; details: 10 days, 0 = no effect, 100 = complete control
How it was run: as §1

[3] = tested on: oat, wild (wild oat, Avena fatua); test: as above; details: 10 days, 0 = no effect, 100 = complete control
How it was run: as §1

[4] = tested on: barnyardgrass (Echinochloa crus-galli); test: as above; details: 10 days, 0 = no effect, 100 = complete control
How it was run: as §1

soybean (Glycine max) [5] = test: as above; details: 10 days, 0 = no effect, 100 = complete control
How it was run: as §1

kochia (Bassia scoparia) [6] = test: as above; details: 10 days, 0 = no effect, 100 = complete control
How it was run: as §1

corn (Zea mays) [7] = test: as above; details: 10 days, 0 = no effect, 100 = complete control
How it was run: as §1

[8] = tested on: ryegrass, Italian (italian ryegrass, Lolium multiflorum); test: as above; details: 10 days, 0 = no effect, 100 = complete control
How it was run: as §1

[9] = tested on: ragweed (common ragweed, Ambrosia artemisiifolia); test: as above; details: 10 days, 0 = no effect, 100 = complete control
How it was run: as §1

[10] = tested on: foxtail, giant (giant foxtail, Setaria faberi); test: as above; details: 10 days, 0 = no effect, 100 = complete control
How it was run: as §1

[11] = tested on: palmer (palmer amaranth, palmer pigweed, Amaranthus palmeri); test: as above; details: 10 days, 0 = no effect, 100 = complete control
How it was run: as §1

rice (Oryza sativa) = test: Test B flooded paddy test, visual plant response rating 0-100; details: 250 g ai/ha, Flood, applied to paddy water, evaluated after 13 days
How it was run: (§2)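 Compounds applied to standing paddy water (3 cm above soil, maintained for the test duration) on 2-leaf-stage plants; visual rating vs controls at 13 days, greenhouse.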

[12] = tested on: ducksalad (Heteranthera limosa); test: as above; details: 250 g ai/ha, Flood, applied to paddy water, evaluated after 13 days
How it was run: as §2

[13] = tested on: barnyardgrass (Echinochloa crusgalli); test: as above; details: 250 g ai/ha, Flood, applied to paddy water, evaluated after 13 days
How it was run: as §2

[14] = tested on: sedge, umbrella (small-flower umbrella sedge, Cyperus difformis); test: as above; details: 250 g ai/ha, Flood, applied to paddy water, evaluated after 13 days
How it was run: as §2

[15] = tested on: blackgrass (Alopecurus myosuroides); test: Test A postemergence application, visual injury rating 0-100; details: Postemergence, 10 days, 0 is no effect, 100 is complete control
How it was run: as §1

[16] = tested on: wheat (Triticum aestivum); test: as above; details: Postemergence, 10 days, 0 is no effect, 100 is complete control
How it was run: as §1

[17] = tested on: oat, wild (wild oat, Avena fatua); test: as above; details: Postemergence, 10 days, 0 is no effect, 100 is complete control
How it was run: as §1

[18] = tested on: barnyardgrass (Echinochloa crus-galli); test: as above; details: Postemergence, 10 days, 0 is no effect, 100 is complete control
How it was run: as §1

soybean (Glycine max) [19] = test: as above; details: Postemergence, 10 days, 0 is no effect, 100 is complete control
How it was run: as §1

kochia (Bassia scoparia) [20] = test: as above; details: Postemergence, 10 days, 0 is no effect, 100 is complete control
How it was run: as §1

corn (Zea mays) [21] = test: as above; details: Postemergence, 10 days, 0 is no effect, 100 is complete control
How it was run: as §1

[22] = tested on: galium (catchweed bedstraw, Galium aparine); test: as above; details: Postemergence, 10 days, 0 is no effect, 100 is complete control
How it was run: as §1

[23] = tested on: ryegrass, Italian (italian ryegrass, Lolium multiflorum); test: as above; details: Postemergence, 10 days, 0 is no effect, 100 is complete control
How it was run: as §1

[24] = tested on: ragweed (common ragweed, Ambrosia artemisiifolia); test: as above; details: Postemergence, 10 days, 0 is no effect, 100 is complete control
How it was run: as §1

[25] = tested on: foxtail, giant (giant foxtail, Setaria faberi); test: as above; details: 10 days, 0 is no effect, 100 is complete control
How it was run: as §1

[26] = tested on: palmer (palmer amaranth, palmer pigweed, Amaranthus palmeri); test: as above; details: Postemergence, 10 days, 0 is no effect, 100 is complete control
How it was run: as §1

[27] = tested on: horseweed (Erigeron canadensis); test: as above; details: Postemergence, 10 days, 0 is no effect, 100 is complete control
How it was run: as §1

CC1(C(=O)NC2C=CC(C(=O)NS(C)(=O)=O)C2)CN(c2cc(F)cc(F)c2)C(=O)O1 (stereo not shown) [Compound 30]
0: Soybean plant response rating (0 to 100 scale) (soybean (Glycine max) [5]; 125 g ai/ha) | Plant response rating, Rice (0 to 100 scale, 0 is no effect and 100 is complete control) (rice (Oryza sativa))
100: Wheat plant response rating (0 to 100 scale) ([2]; 500 g ai/ha) | Barnyardgrass plant response rating (0 to 100 scale) ([4]; 500 g ai/ha) | Foxtail, Giant plant response rating (0 to 100 scale) ([10]; 500 g ai/ha) | Amaranth, Palmer plant response rating (0 to 100 scale) ([11]; 500 g ai/ha) | Blackgrass plant response rating (0 to 100 scale) ([15]; 500 g ai/ha) | Oat, Wild plant response rating (0 to 100 scale) ([17]; 125 g ai/ha) | Oat, Wild plant response rating (0 to 100 scale) ([17]; 500 g ai/ha) | Barnyardgrass plant response rating (0 to 100 scale) ([18]; 125 g ai/ha) | Barnyardgrass plant response rating (0 to 100 scale) ([18]; 500 g ai/ha) | Ryegrass, Italian plant response rating (0 to 100 scale) ([23]; 500 g ai/ha)
60: Oat, Wild plant response rating (0 to 100 scale) ([3]; 125 g ai/ha) | Barnyardgrass plant response rating (0 to 100 scale) ([4]; 125 g ai/ha) | Ragweed plant response rating (0 to 100 scale) ([9]; 500 g ai/ha) | Soybean plant response rating (0 to 100 scale) (soybean (Glycine max) [19]; 125 g ai/ha) | Corn plant response rating (0 to 100 scale) (corn (Zea mays) [21]; 125 g ai/ha)
40: Ragweed plant response rating (0 to 100 scale) ([9]; 125 g ai/ha)
90: Blackgrass plant response rating (0 to 100 scale) ([1]; 500 g ai/ha) | Wheat plant response rating (0 to 100 scale) ([2]; 125 g ai/ha) | Oat, Wild plant response rating (0 to 100 scale) ([3]; 500 g ai/ha) | Kochia plant response rating (0 to 100 scale) (kochia (Bassia scoparia) [6]; 125 g ai/ha) | Kochia plant response rating (0 to 100 scale) (kochia (Bassia scoparia) [6]; 500 g ai/ha) | Ryegrass, Italian plant response rating (0 to 100 scale) ([8]; 500 g ai/ha) | Corn plant response rating (0 to 100 scale) (corn (Zea mays) [21]; 500 g ai/ha) | Foxtail, Giant plant response rating (0 to 100 scale) ([25]; 125 g ai/ha) | Foxtail, Giant plant response rating (0 to 100 scale) ([25]; 500 g ai/ha) | Amaranth, Palmer / Pigweed, Palmer plant response rating (0 to 100 scale) ([26]; 125 g ai/ha) | Amaranth, Palmer / Pigweed, Palmer plant response rating (0 to 100 scale) ([26]; 500 g ai/ha)
70: Corn plant response rating (0 to 100 scale) (corn (Zea mays) [7]; 125 g ai/ha) | Ryegrass, Italian plant response rating (0 to 100 scale) ([8]; 125 g ai/ha) | Blackgrass plant response rating (0 to 100 scale) ([15]; 125 g ai/ha) | Soybean plant response rating (0 to 100 scale) (soybean (Glycine max) [19]; 500 g ai/ha) | Kochia plant response rating (0 to 100 scale) (kochia (Bassia scoparia) [20]; 125 g ai/ha)
15: Plant response rating, Barnyardgrass (0 to 100 scale, 0 is no effect and 100 is complete control) [13]
95: Plant response rating, Sedge, Umbrella (0 to 100 scale, 0 is no effect and 100 is complete control) [14]
65: Plant response rating, Ducksalad (0 to 100 scale, 0 is no effect and 100 is complete control) [12]
80: Blackgrass plant response rating (0 to 100 scale) ([1]; 125 g ai/ha) | Soybean plant response rating (0 to 100 scale) (soybean (Glycine max) [5]; 500 g ai/ha) | Corn plant response rating (0 to 100 scale) (corn (Zea mays) [7]; 500 g ai/ha) | Amaranth, Palmer plant response rating (0 to 100 scale) ([11]; 125 g ai/ha) | Wheat plant response rating (0 to 100 scale) ([16]; 125 g ai/ha) | Wheat plant response rating (0 to 100 scale) ([16]; 500 g ai/ha) | Kochia plant response rating (0 to 100 scale) (kochia (Bassia scoparia) [20]; 500 g ai/ha) | Galium plant response rating (0 to 100 scale) ([22]; 125 g ai/ha) | Galium plant response rating (0 to 100 scale) ([22]; 500 g ai/ha) | Ryegrass, Italian plant response rating (0 to 100 scale) ([23]; 125 g ai/ha) | Ragweed plant response rating (0 to 100 scale) ([24]; 500 g ai/ha) | Horseweed plant response rating (0 to 100 scale) ([27]; 500 g ai/ha)
20: Ragweed plant response rating (0 to 100 scale) ([24]; 125 g ai/ha)
30: Foxtail, Giant plant response rating (0 to 100 scale) ([10]; 125 g ai/ha) | Horseweed plant response rating (0 to 100 scale) ([27]; 125 g ai/ha)
